Here are results for 23 molecules from patent US9150575B2, “Piperidinylpyrazolopyridine derivative” (Daiichi Sankyo Company, Limited, priority 2012, dated 2015).

This assay concerns the target T1, LCAT (Homo sapiens, UniProt P04180).
T1 construct: The obtained fraction was dialyzed against phosphate-buffered saline (pH 7.4) and used as an enzyme source and an acceptor for LCAT; from tissue; host or cells: HDL3 fraction (1.125<specific gravity<1.210 g/mL) of plasma from a healthy person
T1 sequence (P04180 25-440): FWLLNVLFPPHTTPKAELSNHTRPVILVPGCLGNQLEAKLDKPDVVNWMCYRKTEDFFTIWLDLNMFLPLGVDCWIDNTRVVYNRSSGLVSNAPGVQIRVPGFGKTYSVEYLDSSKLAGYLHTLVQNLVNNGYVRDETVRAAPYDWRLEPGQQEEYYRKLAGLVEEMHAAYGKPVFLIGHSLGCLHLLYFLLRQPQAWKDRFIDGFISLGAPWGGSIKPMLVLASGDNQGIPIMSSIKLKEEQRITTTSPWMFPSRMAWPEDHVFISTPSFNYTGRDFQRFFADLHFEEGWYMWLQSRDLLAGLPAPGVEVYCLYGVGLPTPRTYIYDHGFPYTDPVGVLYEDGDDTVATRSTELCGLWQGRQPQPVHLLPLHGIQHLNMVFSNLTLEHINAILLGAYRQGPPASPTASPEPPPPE
Nature of the assay: LCAT Activity Measurement (In Vitro). The assay is classed as biochemical. The note with it: EC50 of LCAT activation; HDL3 fraction from plasma of a healthy person as enzyme source and acceptor; [14C]cholesterol; 37° C., approximately 16 hours. The protocol: A fraction composed of HDL3 (1.125<specific gravity<1.210 g/mL) was obtained from the plasma of a healthy person by density gradient centrifugation. The obtained fraction was dialyzed against phosphate-buffered saline (pH 7.4) and used as an enzyme source and an acceptor for LCAT. Each test drug was prepared by dissolution in dimethyl sulfoxide. [14C]Cholesterol containing DTNB (Ellman's reagent, final concentration: 0.5 mM), mercaptoethanol (final concentration: 12.5 mM), and 0.6% bovine serum albumin was added to phosphate-buffered saline (pH 7.4) containing 1 mg/mL HDL3, and the test drug was further added thereto at varying concentrations to adjust the whole amount to 80 μL. This mixture was incubated at 37° C. for approximately 16 hours. Then, a mixed solution of hexane and isopropanol (mixing ratio=3:2) was added thereto to stop the reaction. After stirring, the hexane layer was collected, and this layer was evaporated to dryness. A chloroform solution (concentration: 10 mg/mL) was added thereto, and the mixture was spotted onto a thin-layer silica gel plate and developed using a mixed solution of hexane, diethyl ether, and ethyl acetate (mixing ratio=85:15:2). The radioactivity of a portion corresponding to cholesterol oleate was measured using an imaging analyzer BAS-2500 (manufactured by Fujifilm Corp.). A sample non-supplemented with the test drug was similarly treated and assayed. The EC50 value of LCAT activation was calculated according to the expression given below relative to LCAT activity in the sample non-supplemented with the test drug.
wherein X represents the logarithm of the concentration of the test drug;
Y represents the responsiveness (LCAT activity) of the test drug;
Top represents the maximum value (maximum plateau);
Bottom represents the minimum value (minimum plateau); and
EC50 represents the 50% effective concentration.
The term EC50 denotes the concentration at which the effect is half-maximal. High values mean a less potent agent, low ones a more potent agent. Take `O=C1CC(O)(C(F)(F)F)c2c(C3CCN(c4cc(I)c(C(F)(F)F)cn4)CC3)n[nH]c2N1` (single isomer, unassigned) [Compound 103-1, 4-hydroxy-3-{1-[4-iodo-5-(trifluoromethyl)pyridin-2-yl]piperidin-4-yl}-4-(trifluoromethyl)-1,4,5,7-tetrahydro-6H-pyrazolo[3,4-b]pyridin-6-one]: the midpoint of the response, the EC50, lay at 27 nM.
`O=C1CC(O)(C(F)(F)F)c2c(C3CCN(c4cc(I)c(C(F)(F)F)cn4)CC3)n[nH]c2N1` (single isomer, unassigned) [Compound 103-2, 4-hydroxy-3-{1-[4-iodo-5-(trifluoromethyl)pyridin-2-yl]piperidin-4-yl}-4-(trifluoromethyl)-1,4,5,7-tetrahydro-6H-pyrazolo[3,4-b]pyridin-6-one] showed an EC50 of 530 nM.
With `O=C1CC(O)(C(F)(F)F)c2c(C3CCN(c4ccc(C(F)(F)F)cn4)CC3)n[nH]c2N1` (single isomer, unassigned; (+)) [Compound 49-2, (+)-4-hydroxy-4-(trifluoromethyl)-3-{1-[5-(trifluoromethyl)pyridin-2-yl]piperidin-4-yl}-1,4,5,7-tetrahydro-6H-pyrazolo[3,4-b]pyridin-6-one], the midpoint of the response, the EC50, lay at 3770 nM. Against the preceding molecule, the EC50 is about 7.1-fold higher.
In the case of `O=C1CC(O)(C(F)(F)F)c2c(C3CCN(c4ccc(OC(F)F)cc4)CC3)n[nH]c2N1` (single isomer, unassigned; (+)) [Compound 56-2, (+)-3-{1-[4-(difluoromethoxy)phenyl]piperidin-4-yl}-4-hydroxy-4-(trifluoromethyl)-1,4,5,7-tetrahydro-6H-pyrazolo[3,4-b]pyridin-6-one] it was 980 nM; in that of `O=C1CC(O)(C(F)(F)F)c2c(C3CCN(c4ccc(C(F)(F)F)cn4)CC3)n[nH]c2N1` (single isomer, unassigned; (-)) [Compound 49-1, (−)-4-Hydroxy-4-(trifluoromethyl)-3-{1-[5-(trifluoromethyl)pyridin-2-yl]piperidin-4-yl}-1,4,5,7-tetrahydro-6H-pyrazolo[3,4-b]pyridin-6-one], 18 nM.
In turn, `O=C1CC(O)(C(F)(F)F)c2c(C3CCN(c4nc(C(F)(F)F)cs4)CC3)n[nH]c2N1` (centres unmarked) [Compound 48-a, 4-Hydroxy-4-(trifluoromethyl)-3-{1-[4-(trifluoromethyl)-1,3-thiazol-2-yl]piperidin-4-yl}-1,4,5,7-tetrahydro-6H-pyrazolo[3,4-b]pyridin-6-one] gave an EC50 of 80 nM.
In the case of `O=C1CC(O)(C(F)(F)F)c2c(C3CCN(c4nc(C(F)(F)F)c(-c5nc(C(F)(F)F)cs5)s4)CC3)n[nH]c2N1` (centres unmarked) [Compound 48-b, 3-{1-[4,4′-bis(trifluoromethyl)-2,5′-bi-1,3-thiazol-2′-yl]piperidin-4-yl}-4-hydroxy-4-(trifluoromethyl)-1,4,5,7-tetrahydro-6H-pyrazolo[3,4-b]pyridin-6-one] it was 46 nM.
With `O=C1CC(O)(C(F)(F)F)c2c(C3CCN(c4ccc(C(F)(F)F)c(Cl)n4)CC3)n[nH]c2N1` (centres unmarked) [Compound 98-a, 3-{1-[6-Chloro-5-(trifluoromethyl)pyridin-2-yl]piperidin-4-yl}-4-hydroxy-4-(trifluoromethyl)-1,4,5,7-tetrahydro-6H-pyrazolo[3,4-b]pyridin-6-one], the 50% effective concentration (EC50) came out at 23 nM.
`O=C1CC(O)(C(F)(F)F)c2c(C3CCN(c4nc(Cl)ccc4C(F)(F)F)CC3)n[nH]c2N1` (centres unmarked) [Compound 98-b, 3-{1-[6-chloro-3-(trifluoromethyl)pyridin-2-yl]piperidin-4-yl}-4-hydroxy-4-(trifluoromethyl)-1,4,5,7-tetrahydro-6H-pyrazolo[3,4-b]pyridin-6-one]: the concentration for a half-maximal effect (EC50) came to 510 nM.
In the case of `O=C1CC(O)(C(F)(F)F)c2c(C3CCN(c4ccccc4)CC3)n[nH]c2N1` (centres unmarked) [Example 1, 4-Hydroxy-3-(1-phenylpiperidin-4-yl)-4-(trifluoromethyl)-1,4,5,7-tetrahydro-6H-pyrazolo[3,4-b]pyridin-6-one] it was 1510 nM; in that of `O=C1CC(O)(C(F)(F)F)c2c(C3CCN(c4ccccn4)CC3)n[nH]c2N1` (centres unmarked) [Example 2, 4-Hydroxy-3-[1-(pyridin-2-yl)piperidin-4-yl]-4-(trifluoromethyl)-1,4,5,7-tetrahydro-6H-pyrazolo[3,4-b]pyridin-6-one], 520 nM.
`Cc1cccc(N2CCC(c3n[nH]c4c3C(O)(C(F)(F)F)CC(=O)N4)CC2)n1` (centres unmarked) [Example 3, 4-Hydroxy-3-[1-(6-methylpyridin-2-yl)piperidin-4-yl]-4-(trifluoromethyl)-1,4,5,7-tetrahydro-6H-pyrazolo[3,4-b]pyridin-6-one]: the EC50 was 630 nM.
Molecule `Cc1ccc(N2CCC(c3n[nH]c4c3C(O)(C(F)(F)F)CC(=O)N4)CC2)nc1` (centres unmarked) [Example 4, 4-Hydroxy-3-[1-(5-methylpyridin-2-yl)piperidin-4-yl]-4-(trifluoromethyl)-1,4,5,7-tetrahydro-6H-pyrazolo[3,4-b]pyridin-6-one] had an EC50 of 250 nM. Compared with the last molecule, the EC50 is about 2.5-fold lower.
To `Cc1ccnc(N2CCC(c3n[nH]c4c3C(O)(C(F)(F)F)CC(=O)N4)CC2)c1` (centres unmarked) [Example 5, 4-Hydroxy-3-[1-(4-methylpyridin-2-yl)piperidin-4-yl]-4-(trifluoromethyl)-1,4,5,7-tetrahydro-6H-pyrazolo[3,4-b]pyridin-6-one] belongs 290 nM.
On to `Cc1cccnc1N1CCC(c2n[nH]c3c2C(O)(C(F)(F)F)CC(=O)N3)CC1` (centres unmarked) [Example 6, 4-Hydroxy-3-[1-(3-methylpyridin-2-yl)piperidin-4-yl]-4-(trifluoromethyl)-1,4,5,7-tetrahydro-6H-pyrazolo[3,4-b]pyridin-6-one], for which a half-maximal response (EC50) required 1260 nM.
In turn, `O=C1CC(O)(C(F)(F)F)c2c(C3CCN(c4ncccc4C(F)(F)F)CC3)n[nH]c2N1` (centres unmarked) [Example 9, 4-Hydroxy-4-(trifluoromethyl)-3-{1-[3-(trifluoromethyl)pyridin-2-yl]piperidin-4-yl}-1,4,5,7-tetrahydro-6H-pyrazolo[3,4-b]pyridin-6-one] showed a half-maximal effective concentration (EC50) of 1150 nM.
The molecule `O=C1CC(O)(C(F)(F)F)c2c(C3CCN(c4ncccc4Cl)CC3)n[nH]c2N1` (centres unmarked) [Example 11, 3-[1-(3-Chloropyridin-2-yl)piperidin-4-yl]-4-hydroxy-4-(trifluoromethyl)-1,4,5,7-tetrahydro-6H-pyrazolo[3,4-b]pyridin-6-one] came in with an EC50 of 3090 nM.
In the case of `COc1cccc(N2CCC(c3n[nH]c4c3C(O)(C(F)(F)F)CC(=O)N4)CC2)n1` (centres unmarked) [Example 12, 4-Hydroxy-3-[1-(6-methoxypyridin-2-yl)piperidin-4-yl]-4-(trifluoromethyl)-1,4,5,7-tetrahydro-6H-pyrazolo[3,4-b]pyridin-6-one] it was 54 nM; in that of `O=C1CC(O)(C(F)(F)F)c2c(C3CCN(c4cc(C(F)(F)F)ccn4)CC3)n[nH]c2N1` (centres unmarked) [Example 13, 4-Hydroxy-4-(trifluoromethyl)-3-{1-[4-(trifluoromethyl)pyridin-2-yl]piperidin-4-yl}-1,4,5,7-tetrahydro-6H-pyrazolo[3,4-b]pyridin-6-one], 56 nM; in that of `O=C1CC(O)(C(F)(F)F)c2c(C3CCN(c4ccc(Cl)cn4)CC3)n[nH]c2N1` (centres unmarked) [Example 14, 3-[1-(5-Chloropyridin-2-yl)piperidin-4-yl]-4-hydroxy-4-(trifluoromethyl)-1,4,5,7-tetrahydro-6H-pyrazolo[3,4-b]pyridin-6-one], 86 nM.
Consider `O=C1CC(O)(C(F)(F)F)c2c(C3CCN(c4ccc(F)cn4)CC3)n[nH]c2N1` (centres unmarked) [Example 15, 3-[1-(5-Fluoropyridin-2-yl)piperidin-4-yl]-4-hydroxy-4-(trifluoromethyl)-1,4,5,7-tetrahydro-6H-pyrazolo[3,4-b]pyridin-6-one], for which the EC50 came to 250 nM.
In the case of `O=C1CC(O)(C(F)(F)F)c2c(C3CCN(c4ccc5ccccc5n4)CC3)n[nH]c2N1` (centres unmarked) [Example 16, 4-Hydroxy-3-[1-(quinolin-2-yl)piperidin-4-yl]-4-(trifluoromethyl)-1,4,5,7-tetrahydro-6H-pyrazolo[3,4-b]pyridin-6-one] it was 96 nM; in that of `CC(C)Oc1ccc(N2CCC(c3n[nH]c4c3C(O)(C(F)(F)F)CC(=O)N4)CC2)nn1` (centres unmarked) [Example 17, 4-Hydroxy-3-{1-[6-(propan-2-yloxy)pyridazin-3-yl]piperidin-4-yl}-4-(trifluoromethyl)-1,4,5,7-tetrahydro-6H-pyrazolo[3,4-b]pyridin-6-one], 64 nM.
